Like-named read-outs stand apart in the source and are kept apart here.
How the values were obtained:
NMDA receptor [1] = target: T1, NMDA receptor (Rattus norvegicus, UniProt P35439); experiment: Inhibition of [3H]-MK-801 binding to rat crude synaptosomes (receptor ligand binding assay); settings: affinity on NMDA; [3H]-MK-801 10 nM, rat prefrontal cortex and hippocampus crude synaptosomes; read-out: IC50
T1 construct: After the rats were decapitated, the prefrontal cortex and hippocampus were rapidly separated on ice; from tissue; host or cells: SD male rat prefrontal cortex and hippocampus, crude synaptosomes
Protocol: The affinity of the tested compounds on NMDA receptor was researched by receptor ligand binding assays.
Ten SD male rats of SPF grade were ordered and acclimated for 7 days for future use.
(§1) After the rats were decapitated, the prefrontal cortex and hippocampus were rapidly separated on ice and weighed, 10 volumes of 50 mM Tris-HCl buffer (50 mM Tris-HCl, 5 mM MgCl2·6H2O, 1 mM EDTA, 0.5% (W/V) BSA, 1 mM PMSF, 0.32 M sucrose, pH 7.4) was added, and the mixture was homogenized for five times at 1500 revolutions/min with 30 s each time. A homogenate was centrifuged for 10 min at 1000×g, and a supernatant was taken and centrifuged for 10 min at 40,000×g, the precipitates were collected, re-suspended with volumes of Tris-HCl buffer, incubated at 37° C. for 10 min, and centrifuged for 10 min at 40,000×g, finally the precipitates were re-suspended with the above buffer, aliquoted and stored at −80° C. for later use.
(2) Detection of Inhibitory Function of Tested Medicines on Binding of Crude Synaptosomes in Rats to [^3H]-MK-801
50 μg of rat crude synaptosomal proteins was added to all tubes respectively. A volume of 50 μl of MK-801 (dizocilpine) was added to a non-specific binding tube to achieve a final concentration of 100 μM, and the materials were reacted for 15 min in advance. 20 μL of control drug at corresponding concentration was added to the test tube for reaction for 15 min. A volume of 30 μl of labeled ligand [^3H]-MK-801 was successively added to all tubes to achieve a final concentration of 10 nM. All reaction tubes were supplemented to a volume of 200 μl with 50 mM Tris-HCl buffer (50 mM Tris-HCl, 5 mM MgCl2·6H2O, 1 mM EDTA, 0.5% (WN) BSA, 0.1% NaN3, pH 7.4). A reaction was carried out at 37° C. for 10 min. A type-49 glass fiber filter membrane was prepared and a sample was applied at the same time. The filter membrane was placed in a multi-head cell collector, and a reaction system was subjected to suction filtration under negative pressure and washed with an ice-cold 50 mM Tris-HCl buffer, 10 ml each time, for a total of 5 times. After suction drying, 1 ml of scintillation liquid was added to the filter membrane, the filter membrane was placed on a shaker for shaking for 1.5 h and then placed in a liquid scintillation counter on the next day to determine the radioactive intensity.
GraphPad5.0 software was used to analyze the data, and the percentage of competitive inhibition was calculated through nonlinear fitting, wherein:
Percentage of competitive inhibition %=((total binding tube cpm−compound cpm)/(total binding tube cpm−non-specific binding tube cpm))×100%;
Specific binding amount=total binding amount−non-specific binding amount, wherein each binding site was determined by double compound tubes.

[2] = In-vivo metabolism (pharmacokinetic) study in rats, oral / tail intravenous; settings: rat, plasma; for bioavailability: male, SD, oral 10 mg/kg vs intravenous 1 mg/kg, rats; for AUC(0-t) / Cmax: male SD rats
Protocol: The pharmacokinetic parameters such as exposure of plasma concentrations of the compounds of examples were evaluated by oral/tail intravenous injection model tests in rats in order to evaluate the in-vivo metabolic stability in rats.
The male SD rats weighing 200±20 g and being SPF grade were used in this experiment and purchased from SPF.
Preparation of intravenous solution: 1 mg of each tested medicine was weighed accurately, and a volume was metered to 5 mL with 0.9% sodium chloride solution to prepare 0.2 mg/mL. A dose volume was 1 mL for per 200 g of weight, and the dose was 1 mg for per 1 kg of weight based on the concentration conversion.
Preparation of intragastric solution: 10 mg of each tested medicine was accurately weighed, and a volume was metered to 10 mL with 0.9% sodium chloride solution to prepare 1 mg/mL of the solution. A dose volume was 2 mL for per 200 g of weight, and the dose was 10 mg for per 1 kg of weight based on the concentration conversion.
Rats were randomly divided into 8 groups, 6 rats were in each group, oral gavage administration and tail intravenous administration were performed according to the above doses. About 0.2 mL of orbital blood was collected before administration and at 2 min, 5 min, 15 min, 30 min, 1 h, 2 h, 3 h, 4 h and 6 h after administration, respectively, and centrifuged at 3000 rpm for 10 min at 4° C., and a supernatant was taken for LC/MS/MS determination. A DAS pharmacokinetics program was used to analyze the measured data and calculate the main pharmacokinetic parameters.

rats = experiment: Forced swimming test in rats; type: in vivo; settings: Rattus norvegicus, Po
Protocol: Pharmacodynamic evaluation was performed by the forced swimming tests in rats. The experimental animals were male SD rats weighing 150 g-180 g and being SPF grade, and acclimated for one week after purchase, and then subjected to forced swimming tests, the rats need be fasted for 12 hours before the tests. The compounds of examples were dissolved with normal saline, and blank control group (normal saline) and example compound administration group were established. 8-10 rats were provided for each group. On the day before the tests, the rats were placed in a glass cylinder with a height of 40 cm, an inner diameter of 18 cm, and a water depth of 23 cm for pre-swimming for 15 min, and a water temperature was 28° C. After the pre-swimming the rats were removed, wiped with a dry cloth, and dried with an electrical heater, then returned to a rearing cage, and administered. A formal forced swimming test was performed on the next day for a total of 5 min. The accumulated immobility time within 5 min was recorded, and a second forced swimming test was performed on the seventh day; the criteria for determining immobility were that the rats stopped struggling in the water, were in a floating state, and had only slight limb movements to keep the head floating on the water surface. The results are shown in Table 4, and the experimental data were statistically analyzed by GraphPad Prism 5.0 software.

NMDA receptor [3] = target: T1, NMDA receptor; experiment: NMDA receptor agonistic properties in rat crude synaptosomal proteins (maximum [3H]-MK-801 binding vs 1 mM glycine); type: biochemical; settings: maximum [3H]-MK-801 binding % relative to 1 mM glycine; 50 μM glutamic acid
Protocol: as §1
(3) Detection of Influence of Tested Medicines on NMDA Receptor Agonistic Properties in Rat Crude Synaptosomal Proteins
100 μg of rat crude synaptosomal proteins was added to all tubes respectively. 50 μl of 5,7-dichlorokynurenic acid was added to a non-specific binding tube to achieve a final concentration of 10 μM. All tubes were preloaded with 50 μM of glutamic acid, and the materials were reacted for 15 min in advance. 20 μL of control drug at corresponding concentration was added to the test tube, and then reacted for 15 min. 1 mM glycine was added to the maximum reaction tube. A volume of 30 μl of labeled ligand [^3H]-MK-801 was successively added to all tubes to achieve a final concentration of 10 nM, and reacted for 15 min. All reaction tubes were supplemented to a volume of 500 μl with 50 mM Tris-HCl buffer (50 mM Tris-HCl, 5 mM MgCl2·6H2O, 1 mM EDTA, 0.5% (WN) BSA, 0.1% NaN3, pH 7.4). A reaction was carried out at 37° C. for 15 min. A type-49 glass fiber filter membrane was prepared and a sample was applied at the same time. The filter membrane was placed in a multi-head cell collector, and the reaction system was subjected to suction filtration under negative pressure and washed with an ice-cold 50 mM Tris-HCl buffer, 10 ml each time, for a total of 5 times. After suction drying, 1 ml of scintillation liquid was added to the filter membrane, the filter membrane was placed on the shaker for shaking for 1.5 h and then placed in the liquid scintillation counter on the next day to determine the radioactive intensity.
In an agonistic experiment, maximum [^3H]-MK-801 binding %=((tested compounds cpm−5,7 dichlorokynurenic acid cpm)/(1 mM glycine cpm−5,7 dichlorokynurenic acid cpm))×100%.

[4] = 48 h, Day 2, *P<0.05, **P<0.01 compared with the control group, read-out: Reduction percentage (%) of floating time, Day 2
[5] = 168 h, Day 7, *P<0.05, **P<0.01 compared with the control group, read-out: Reduction percentage (%) of floating time, Day 7

| SMILES | IC50 (NMDA receptor [1]) | bioavailability [2] | AUC(0-t) ([2]; Intravenous injection, 1 mg/kg) | Cmax ([2]; Intravenous injection, 1 mg/kg) | AUC(0-t) ([2]; Oral, 10 mg/kg) | Cmax ([2]; Oral, 10 mg/kg) | inhibition in vivo at 0.1 mg/kg (rats; [4]) | inhibition in vivo at 0.1 mg/kg (rats; [5]) | Maximum agonistic efficacy (%) (NMDA receptor [3]) |
| --- | --- | --- | --- | --- | --- | --- | --- | --- | --- |
| C[C@@H](O)[C@H](N)C(=O)N1CC2(C1)NCCS2.Cl [A-006] | 0.44 nM | 21.2% | 16500 ng·h/mL | 11600 ng/mL | 35000 ng·h/mL | 18400 ng/mL | 36.4% | 22.2% | 32% |
| Cl.N[C@@H](CO)C(=O)N1CC2(C1)NCCS2 [A-007] | 0.89 nM | – | – | – | – | – | 35.1% | 32.4% | 56% |
| CC(C)[C@H](N)C(=O)N1CC2(C1)NCCS2.Cl [A-008] | 0.89 nM | – | – | – | – | – | 54.9% | 57.3% | 35% |
| C[C@@H](O)[C@H](N)C(=O)N1CCC2(C1)NCCS2.Cl (some centres unmarked) [A-020] | 0.25 nM | – | – | – | – | – | 51.8% | 59.3% | 42% |
| C[C@@H](O)[C@H](N)C(=O)N1CCC2(CC1)NCCS2.Cl [A-034] | 0.89 nM | – | – | – | – | – | 71.9% | 60.1% | 25% |
| CC(=O)N1CCSC12CN(C(=O)[C@@H](N)[C@@H](C)O)C2.Cl [A-066] | 0.35 nM | 54.5% | 1380 ng·h/mL | 1690 ng/mL | 7560 ng·h/mL | 2080 ng/mL | 68% | 55.3% | 29% |
| CC(=O)N1CCSC12CCN(C(=O)[C@@H](N)[C@@H](C)O)CC2.Cl [A-082] | 0.89 nM | 19.6% | 6850 ng·h/mL | 18300 ng/mL | 13400 ng·h/mL | 5580 ng/mL | – | – | 45% |
| CC(C)C(=O)N1CCSC12CN(C(=O)[C@@H](N)[C@@H](C)O)C2.Cl [A-098] | 0.98 nM | 19.1% | 952 ng·h/mL | 1090 ng/mL | 1820 ng·h/mL | 767 ng/mL | 64.5% | 13.9% | 28% |
| C[C@@H](O)[C@H](N)C(=O)N1CC2(C1)N[C@H](C(N)=O)CS2.Cl [A-258] | 0.33 nM | 27.3% | 4180 ng·h/mL | 3630 ng/mL | 11400 ng·h/mL | 4910 ng/mL | 74.8% | 56.4% | 21% |

Source: patent US20230348493A1, “COMPOUND FOR ADJUSTING ACTIVITY OF NMDA RECEPTOR, AND PHARMACEUTICAL COMPOSITION AND USE THEREOF” (BEIJING GREATWAY PHARMACEUTICAL TECHNOLOGY CO., LTD., priority 2020, published 2023)
